Measurements as given in patent US9624170B2, “4-(piperrazin-1-yl)-pyrrolidin-2-one compounds as monoacylglycerol lipase (MAGL) inhibitors” (TAKEDA PHARMACEUTICAL COMPANY LIMITED, priority 2013, dated 2017).

These compounds were tested against T1, human MAGL (His-hMAGL) (Homo sapiens, UniProt Q99685) (assay: Measurement of MAGL inhibitory activity by mass spectrometry). Conditions: 10 μM test compound; substrate 2-arachidonylglycerol, arachidonic acid by RapidFire-mass spectrometry.
T1 construct: made in house; host or cells: Escherichia coli BL21(DE3)
T1 sequence (Q99685 1-303): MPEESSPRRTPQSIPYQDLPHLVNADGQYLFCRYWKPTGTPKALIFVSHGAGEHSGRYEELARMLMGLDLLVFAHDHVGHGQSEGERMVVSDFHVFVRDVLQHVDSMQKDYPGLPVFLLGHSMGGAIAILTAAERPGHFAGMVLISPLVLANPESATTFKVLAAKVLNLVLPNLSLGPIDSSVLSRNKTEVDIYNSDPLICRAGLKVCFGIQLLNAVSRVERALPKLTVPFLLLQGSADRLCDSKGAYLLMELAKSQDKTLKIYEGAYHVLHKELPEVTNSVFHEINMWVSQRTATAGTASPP
Type: biochemical
Method in brief: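 His-tagged human MAGL was reacted with 150 μM 2-arachidonylglycerol substrate (stock, added by 5 μL) for 10 min at room temperature, then stopped with formic acid. Arachidonic acid product was quantified by RapidFire–triple-quadrupole MS in negative SRM mode, corrected by arachidonic acid-d8, and converted to percent inhibition.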

Row | inhibition at 10 µM | SMILES
1 | 81% | Cc1cnccc1-c1ccc(N2CC(N3CCN(C(=O)c4nccs4)CC3)CC2=O)cc1 (stereo not shown) [Example 178, 1-(4-(3-methylpyridin-4-yl)phenyl)-4-(4-(1,3-thiazol-2-ylcarbonyl)piperazin-1-yl)pyrrolidin-2-one]
2 | 99% | CC(=O)N(C)c1ccc(Nc2cccc(N3CC(N4CCN(C(=O)c5nccs5)CC4)CC3=O)c2)cc1 (stereo not shown) [Example 117, N-methyl-N-(4-((3-(2-oxo-4-(4-(1,3-thiazol-2-ylcarbonyl)piperazin-1-yl)pyrrolidin-1-yl)phenyl)amino)phenyl)acetamide]
3 | 99% | CS(=O)(=O)Nc1ccc(-c2cccc(N3CC(N4CCN(C(=O)c5nccs5)CC4)CC3=O)c2)cc1 (stereo not shown) [Example 110, N-(3′-(2-oxo-4-(4-(1,3-thiazol-2-ylcarbonyl)piperazin-1-yl)pyrrolidin-1-yl)biphenyl-4-yl)methanesulfonamide]
4 | 98% | O=C1COc2ccc(Nc3cccc(N4CC(N5CCN(C(=O)c6nccs6)CC5)CC4=O)c3)cc2N1 (stereo not shown) [Example 122, 6-((3-(2-oxo-4-(4-(1,3-thiazol-2-ylcarbonyl)piperazin-1-yl)pyrrolidin-1-yl)phenyl)amino)-2H-1,4-benzoxazin-3(4H)-one]
5 | 91% | O=C(c1nccs1)N1CCN(C2CC(=O)N(c3cncc(-c4ccccc4)c3)C2)CC1 (stereo not shown) [Example 131, 1-(5-phenylpyridin-3-yl)-4-(4-(1,3-thiazol-2-ylcarbonyl)piperazin-1-yl)pyrrolidin-2-one]
6 | 102% | O=C(c1nccs1)N1CCN(C2CC(=O)N(c3cccc(Cc4ccccc4)c3)C2)CC1 (stereo not shown) [Example 99, 1-(3-benzylphenyl)-4-(4-(1,3-thiazol-2-ylcarbonyl)piperazin-1-yl)pyrrolidin-2-one]
7 | 101% | O=C(c1cscn1)N1CCN(C2CC(=O)N(c3cccc(-c4ccccc4Cl)c3)C2)CC1 (stereo not shown) [Example 168, 1-(2′-chlorobiphenyl-3-yl)-4-(4-(1,3-thiazol-4-ylcarbonyl)piperazin-1-yl)pyrrolidin-2-one]

Same assay, conditions: MAGL inhibitory rate, test compound 10 μM, His-hMAGL, substrate 2-arachidonylglycerol, RapidFire-mass spectrometry

Row | SMILES | inhibition at 10 µM
8 | O=C(c1nccs1)N1CCN(C2CC(=O)N(c3ccc(F)c(-c4ccccc4)c3)C2)CC1 (stereo not shown) [Example 243, 1-(6-fluorobiphenyl-3-yl)-4-(4-(1,3-thiazol-2-ylcarbonyl)piperazin-1-yl)pyrrolidin-2-one] | 100%
9 | Cc1ccc(-n2ccc3cc(N4CC(N5CCN(C(=O)c6nccs6)CC5)CC4=O)ccc32)cc1 (stereo not shown) [Example 235, 1-(1-(4-methylphenyl)-1H-indol-5-yl)-4-(4-(1,3-thiazol-2-ylcarbonyl)piperazin-1-yl)pyrrolidin-2-one] | 100%
10 | Cc1cc(-c2cccc(N3CC(N4CCN(C(=O)c5nccs5)CC4)CC3=O)c2)ccn1 (stereo not shown) [Example 204, 1-(3-(2-methylpyridin-4-yl)phenyl)-4-(4-(1,3-thiazol-2-ylcarbonyl)piperazin-1-yl)pyrrolidin-2-one] | 101%
11 | NS(=O)(=O)c1cccc(-c2ccc(N3CC(N4CCN(C(=O)c5nccs5)CC4)CC3=O)cc2)c1 (stereo not shown) [Example 194, 4′-(2-oxo-4-(4-(1,3-thiazol-2-ylcarbonyl)piperazin-1-yl)pyrrolidin-1-yl)biphenyl-3-sulfonamide] | 96%
12 | O=C(c1nccs1)N1CCN(C2CC(=O)N(c3ccc(-c4cccc(CO)c4)cc3)C2)CC1 (stereo not shown) [Example 187, 1-(3′-(hydroxymethyl)biphenyl-4-yl)-4-(4-(1,3-thiazol-2-ylcarbonyl)piperazin-1-yl)pyrrolidin-2-one] | 96%
13 | O=C(c1nccs1)N1CCN(C2CC(=O)N(c3ccc(-c4cccs4)cc3)C2)CC1 (stereo not shown) [Example 218, 4-(4-(1,3-thiazol-2-ylcarbonyl)piperazin-1-yl)-1-(4-(2-thienyl)phenyl)pyrrolidin-2-one] | 99%
14 | O=C(c1nccs1)N1CCN(C2CC(=O)N(c3ccc(-c4ccncc4)cc3)C2)CC1 (stereo not shown) [Example 196, 1-(4-(pyridin-4-yl)phenyl)-4-(4-(1,3-thiazol-2-ylcarbonyl)piperazin-1-yl)pyrrolidin-2-one] | 83%

Results, then the compound that gave them:

Row | inhibition at 10 µM | SMILES
15 | 101% | O=C(c1nccs1)N1CCN(C2CC(=O)N(c3ccc4c(ccn4-c4ccccc4)c3)C2)CC1 (stereo not shown) [Example 250, 1-(1-phenyl-1H-indol-5-yl)-4-(4-(1,3-thiazol-2-ylcarbonyl)piperazin-1-yl)pyrrolidin-2-one]
16 | 101% | O=C(c1nccs1)N1CCN(C2CC(=O)N(c3cccc(-c4cccc5ccsc45)c3)C2)CC1 (stereo not shown) [Example 313, 1-(3-(1-benzothiophen-7-yl)phenyl)-4-(4-(1,3-thiazol-2-ylcarbonyl)piperazin-1-yl)pyrrolidin-2-one]
17 | 98% | O=C(c1nccs1)N1CCN(C2CC(=O)N(c3cccc(-c4ccccc4)c3F)C2)CC1 (stereo not shown) [Example 244, 1-(2-fluorobiphenyl-3-yl)-4-(4-(1,3-thiazol-2-ylcarbonyl)piperazin-1-yl)pyrrolidin-2-one]
18 | 101% | CC(C)(C)OC(=O)N1CCc2cc(N3CC(N4CCN(C(=O)c5nccs5)CC4)CC3=O)ccc21 (stereo not shown) [Example 372, tert-Butyl 5-(2-oxo-4-(4-(1,3-thiazol-2-ylcarbonyl)piperazin-1-yl)pyrrolidin-1-yl)indoline-1-carboxylate]
19 | 96% | O=C(c1nccs1)N1CCN(C2CC(=O)N(c3ccc4c(c3)CCN4C(=O)C(F)(F)F)C2)CC1 (stereo not shown) [Example 373, 4-(4-(1,3-Thiazol-2-ylcarbonyl)piperazin-1-yl)-1-(1-(trifluoroacetyl)-2,3-dihydro-1H-indol-5-yl)pyrrolidin-2-one]
20 | 102% | O=C(c1nccs1)N1CCN(C2CC(=O)N(c3ccc(F)c(-c4ccc(F)cc4Cl)c3)C2)CC1 (stereo not shown) [Example 276, 1-(2′-chloro-4′,6-difluorobiphenyl-3-yl)-4-(4-(1,3-thiazol-2-ylcarbonyl)piperazin-1-yl)pyrrolidin-2-one]
21 | 97% | Cc1ccc(-c2ccc(N3CC(N4CCN(C(=O)c5nccs5)CC4)CC3=O)cc2)cn1 (stereo not shown) [Example 265, 1-(4-(6-methylpyridin-3-yl)phenyl)-4-(4-(1,3-thiazol-2-ylcarbonyl)piperazin-1-yl)pyrrolidin-2-one]
22 | 100% | O=C(c1nccs1)N1CCN(C2CC(=O)N(c3cccc(-c4ccc(Cl)cc4F)c3)C2)CC1 (stereo not shown) [Example 304, 1-(4′-chloro-2′-fluorobiphenyl-3-yl)-4-(4-(1,3-thiazol-2-ylcarbonyl)piperazin-1-yl)pyrrolidin-2-one]
23 | 102% | O=C(c1nccs1)N1CCN(C2CC(=O)N(c3ccc4c(c3)CCN4C(=O)Cc3ccccc3Cl)C2)CC1 (stereo not shown) [Example 395, 1-(1-((2-chlorophenyl)acetyl)-2,3-dihydro-1H-indol-5-yl)-4-(4-(1,3-thiazol-2-ylcarbonyl)piperazin-1-yl)pyrrolidin-2-one]
24 | 92% | Cc1nccnc1-c1cccc(N2CC(N3CCN(C(=O)c4nccs4)CC3)CC2=O)c1 (stereo not shown) [Example 362, 1-(3-(3-methylpyrazin-2-yl)phenyl)-4-(4-(1,3-thiazol-2-ylcarbonyl)piperazin-1-yl)pyrrolidin-2-one]
25 | 104% | O=C(c1nccs1)N1CCN(C2CC(=O)N(c3cccc(-c4cnccc4C(F)(F)F)c3)C2)CC1 (stereo not shown) [Example 371, 4-(4-(1,3-thiazol-2-ylcarbonyl)piperazin-1-yl)-1-(3-(4-(trifluoromethyl)pyridin-3-yl)phenyl)pyrrolidin-2-one]
